Results as given in patent publication US6562785B1, “Method for overcoming bacterial antibiotic resistance” (priority 1999, dated 2003).
In brackets after ≈: the same amount, converted by molar mass.

Key:
[1] = tested on: Staphylococcus aureus (ATCC 29213) and Micrococcus luteus; experiment: Membrane potential by ratio of red to green DiOC2(3) fluorescence, flow cytometry; format: cell-based
Description: (§1) Flow cytometric studies were performed using a laboratory-built dual laser instrument optimized for bacterial analysis. DiOC2(3) was excited at 488 nm by a beam from an argon ion laser; its green fluorescence was detected through a 530 nm, 20 nm bandwidth bandpass filter, and its red fluorescence was detected through a 610 nm, 19 nm bandpass filter. TO-PRO-3™ was excited at 633 nm by a beam from a helium-neon laser, and its fluorescence was detected through a 695 nm long pass filter. Light scattered at small angles to the 488 nm beam (forward scatter) was used as the trigger signal. Sheath flow rate was 10 ml/min; sample analysis rate was kept below 1,000 events/second. The signal pulse amplitudes were captured by high-precision peak detectors, and digitized using an Analogic HSDAS-16 16-bit data acquisition system in a Pentium-class personal computer. Software was used to perform logarithmic conversion on all of the parameters, which were represented on a 256-channel, 4-decade logarithmic scale.
(§2) Staphylococcus aureus (ATCC 29213) and Micrococcus luteus were grown overnight in trypticase soy broth. Stock solutions of antibiotics were made according to Anhalt & Washington (1991)(Balows, A. et al, (eds) American Society for Microbiology, Washington, 1991, pp. 1199-200). Antibiotics were diluted to the appropriate concentration in 1 ml of Mueller-Hinton broth (Gibco, Gaithersburg, Md.), and filtered though a 0.22 μm filter (Gelman Sciences, Ann Arbor, Mich.). MIC was defined as the minimum concentration of antibiotic that caused no growth after 24 hours in Mueller-Hinton broth.
(§3) Bacteria were added to an antibiotic solution at a concentration of 5.5×10^5/ml and incubated for the appropriate amount of time at 37 degrees C. while shaking. At each time point, a […] aliquot was removed and 30 μM DiOC2(3) and 100 nM TO-PRO-3™ were added simultaneously. The bacteria were allowed to incubate with the dye for 4 minutes prior to flow cytometric analysis. A second […] aliquot was treated identically, except that CCCP (final concentration 15 μM) was added to electrically depolarize the bacteria (i.e., to reduce membrane potential to zero).
(§4) Membrane potential was determined as a ratio of red to green DiOC2(3) fluorescence, providing a cell size-independent measure of MP. To measure membrane permeability, 100 nM TO-PRO-3™ was used in conjunction with the MP dye, DiOC2(3). […] Cells killed by heat exposure (100 degrees C. for 10 minutes) were used as positive controls for TO-PRO-3™ staining.

[2] = tested on: Staphylococcus aureus (ATCC 29213) and Micrococcus luteus; experiment: Membrane permeability by TO-PRO-3 staining, flow cytometry; format: cell-based; details: for bacteria stained by TO-PRO-3: 4 hours exposure to 4 μg/ml
Description: as §1, §2, §3, §4
Effects of amoxicillin (MIC 2 μg/ml) were strongly concentration-dependent. […] Changes in permeability could be observed 45 minutes after antibiotic addition; however, the variance of the TO-PRO-3™ fluorescence distribution was quite large, due primarily to the large variance in size resulting from drug administration. The raw TO-PRO-3™ fluorescence data was corrected for size variation by calculating a quantity proportional to the logarithm of the ratio of TO-PRO-3™ fluorescence to green DiOC2(3) fluorescence, which is known to be proportional to size; the logarithm of green fluorescence was subtracted from the logarithm of TO-PRO-3™ fluorescence, and a constant was added to keep the values on scale. This allowed cells which had become permeable to TO-PRO-3™ to be visualized as a discrete population. Thus, when the size of the bacteria is altered by the permeabilizing agent, such as β-lactam antibiotics used at concentrations below MIC, correction for change in cell volume is important in making permeability measurements. […] Resumption of bacterial growth was coincident with this reversion to a TO-PRO-3™-impermeable state, which occurred after 3 hours in the presence of 0.25 μg/ml amoxicillin and after 4 hours in the presence of 0.5 μg/ml.

[3] = tested on: Staphylococcus aureus (ATCC 29213) and Micrococcus luteus; experiment: Bacterial growth and size (bead-referenced counts, forward scatter, microscopy); format: cell-based
Description: as §2
Bacteria were added to an antibiotic solution at a concentration of 5.5×10^5/ml and incubated for the appropriate amount of time at 37 degrees C. while shaking. […]
Bacteria were counted by adding […] sky blue beads (Spherotech, Libertyville, Ill.) to the cell suspension at a known concentration, determined by counting on a haemocytometer. […] Beads were diluted 1:100 into the bacterial sample and could be identified and counted based on their intense fluorescence (excitation at 633 nm; emission above 695 nm). The volume of sample analyzed in any given aliquot was calculated from the number of beads measured; dividing the number of bacteria by this volume yielded the concentration of bacteria in the aliquot.

[4] = even at high concentrations; cited from earlier work
[5] = tested on: Staphylococcus aureus (ATCC 29213) and Micrococcus luteus; experiment: MIC: minimum antibiotic concentration causing no growth after 24 hours in Mueller-Hinton broth; format: cell-based; details: ATCC29213
Description: Staphylococcus aureus (ATCC 29213) and Micrococcus luteus were grown overnight in trypticase soy broth. Stock solutions of antibiotics were made according to […] & Washington (1991)(Balows, A. et al, (eds) American Society for Microbiology, Washington, 1991, pp. 1199-200). Antibiotics were diluted to the appropriate concentration in 1 ml of Mueller-Hinton broth (Gibco, Gaithersburg, Md.), and filtered though a 0.22 μm filter (Gelman Sciences, Ann Arbor, Mich.). MIC was defined as the minimum concentration of antibiotic that caused no growth after 24 hours in Mueller-Hinton broth.

gram negative organisms = details: concentrations up to 10 times MIC; cited from earlier work

Molecule: O=C(N[C@H](CO)[C@H](O)c1ccc([N+](=O)[O-])cc1)C(Cl)Cl [chloramphenicol]
- changes in MP ([1]; 4 μg/ml, after 4 hours): no changes
- changes in permeability ([2]; 4 μg/ml, after 4 hours): no changes
- bacterial growth ([3]; 4 μg/ml): completely prevented bacterial growth
- changes in permeability (Mortimer et al.) [4]: does not cause changes in permeability

Molecule: CN(C)[C@@H]1C(O)=C(C(N)=O)C(=O)[C@@]2(O)C(O)=C3C(=O)c4c(O)cccc4[C@@](C)(O)[C@H]3C[C@@H]12 [Tetracycline, tetracycline]
- MIC [5]: 0.25 µg/mL (≈ 0.563 µM)
- MP reduced to ([1]; 4 μg/ml, after 4 hours): −50 mV
- bacteria stained by TO-PRO-3 [2]: 50%

Molecule: CC[C@H]1OC(=O)[C@H](C)[C@@H](O[C@H]2C[C@@](C)(OC)[C@@H](O)[C@H](C)O2)[C@H](C)[C@@H](O[C@@H]2O[C@H](C)C[C@H](N(C)C)[C@H]2O)[C@](C)(O)C[C@@H](C)C(=O)[C@H](C)[C@@H](O)[C@]1(C)O [erythromycin]
- MIC [5]: 4 µg/mL (≈ 5.45 µM)
- MP reduced to ([1]; 4 μg/ml, after 4 hours): −50 mV
- depolarization ([1]; dependence on concentration and time): concentration- and time-dependent depolarizations
- bacteria stained by TO-PRO-3 [2]: 20%
- permeability changes ([2]; concentrations below 1 μg/ml): did not cause any permeability changes

Molecule: CC1(C)S[C@@H]2[C@H](NC(=O)[C@H](N)c3ccc(O)cc3)C(=O)N2[C@H]1C(=O)O [amoxicillin]
- MIC [5]: 2 µg/mL (≈ 5.47 µM)
- dominant characteristic of treated cells (MP) ([1]; concentrations above MIC): loss of MP
- time to reversion to TO-PRO-3-impermeable state, coincident with resumption of bacterial growth ([2]; 0.25 μg/ml): 3 h
- time to reversion to TO-PRO-3-impermeable state, coincident with resumption of bacterial growth ([2]; 0.5 μg/ml): 4 h
- percentage of cells permeable to TO-PRO-3, 4 μg/ml compared with 1 μg/ml ([2]; 4 μg/ml versus 1 μg/ml): lower percentages of cells permeable to TO-PRO-3™
- membrane integrity after four hours ([2]; 0.25 or 0.5 μg/ml, after four hours): the majority of the cells regained their membrane integrity
- TO-PRO-3 permeable population and its MP ([2]; after 2 hours at either 0.25 or 0.5 μg/ml): a population that was permeable to TO-PRO-3™, but that maintained a normal MP, was detected
- time after antibiotic addition at which changes in permeability could be observed ([2]; concentrations below MIC): 45 min
- bacterial size ([3]; concentrations below MIC, microscopy and forward scatter): drastically increased in size

Molecule: gentamicin
- changes in permeability to nucleic acid stains (gram negative organisms): no

Molecule: [H]/N=C(/N)N[C@H]1[C@H](O)[C@@H](O)[C@H](O[C@@H]2O[C@@H](C)[C@](O)(C=O)[C@H]2O[C@@H]2O[C@@H](CO)[C@H](O)[C@@H](O)[C@@H]2NC)[C@@H](N/C(N)=N\[H])[C@@H]1O [Streptomycin, streptomycin]
- effect on MP ([1]; 5 μg/ml, by 1 hour, remained reduced at 105 minutes and 4 hours): reduced MP
- effect on MP after erythromycin preincubation ([1]; organisms preincubated with 1 mg/ml erythromycin for 30 minutes): abolished
- permeability changes ([2]; 5 μg/ml, 1 hour to 4 hours): No permeability changes were seen
